Results taken from paper PMC12316891, “A bottom-up approach to find lead compounds in expansive chemical spaces” (Communications Chemistry, 2025).

Experiments:
[1] = molecular target: T1, His6-BRD4 (BD1) (Homo sapiens, UniProt O60885); experiment: Surface plasmon resonance (SPR) single-dose screening; format: binding; parameters: key to SPR RESULT: Positive: compounds were considered as SPR hits also when their average signal was further than two standard deviations apart from the average signal of the blank samples (1% DMSO); details: for RUs at [10 µM]: SPR, compound 10 µM, 1% DMSO, n = 2, decimal comma
T1 construct: A pET28 plasmid containing residues 44–168 of BRD4 (BD1), a 6xHis tag, a TEV protease cleavage site; made in house; host or cells: E. coli Rosetta (D3)

[2] = molecular target: T2, BRD4 (BD1) (Homo sapiens, UniProt O60885); details: advanced BRD4 (BD1) drug; cited from earlier work
T2 construct: A pET28 plasmid containing residues 44–168 of BRD4 (BD1), a 6xHis tag, a TEV protease cleavage site; 6xHis (N, cleaved yes); made in house; host or cells: E. coli Rosetta (D3)

[3] = molecular target: T2, BRD4 (BD1); experiment: Differential scanning fluorimetry (DSF) single-dose thermal shift screening; format: binding; details: DSF, compound 10 µM, BRD4 (BD1) 2 µM, n = 3, decimal comma; read-out: ΔTm ºC at [10 µM]
[4] = molecular target: T2, BRD4 (BD1); experiment: Competitive HTRF TR-FRET binding assay (displacement of acetylated histone H4 peptide); details: 16-point titration 0.1 nM to 10 µM, n = 2; Negative = curve could not be fitted to a sigmoidal curve; read-out: TR-FRET IC50
Procedure: To further quantitatively characterize the DSF/SPR hits compounds obtained in the single-dose screenings, we selected HTRF TR-FRET. Specifically, we employed a competitive HTRF TR-FRET experiment to measure the compound’s capacity to displace an acetylated peptide from the binding site of BRD4 (BD1). For each molecule, a 16-point concentration curve was titrated against the peptide-BRD (BD1) complex and incubated for 1.5 h. A compound was considered a positive binder if we could fit its titration curve to a sigmoidal curve to determine its IC50. […] Compound screening was carried out in 384-well, white, round-bottom, small-volume plates (CORNING) in a final volume of 20 µL of 50 mM HEPES (pH 7.4), 50 mM NaCl, 400 mM KF, 0.5 mM CHAPS, and 0.05% BSA. […] Then, the labeled anti-His6-XL665 antibody (CisBio) (10 nM) was added to the mixture and incubated for 15 min, before the Eu3+ cryptate-conjugated streptavidin (2 nM) (CisBio) was added and incubated for 15 min. All incubations were performed at room temperature. […] Titration of (+)−JQ1 was used as a positive control for each experiment.

RUs at [10 µM] [1] | ΔTm at 10 µM [3] [°C] | SPR RESULT ([1]; single dose 10 µM, n = 2) | IC50 [4] [nM] | SMILES | Ki [2] [nM]
116,86 ± 26,64 RUs |  |  |  | CCS(=O)(=O)Nc1ccc(Oc2ccc(F)cc2F)c(-c2cn(C)c(=O)c3[nH]ccc23)c1 [Compound 1, CCS(=O)(=O)NC1=CC(=C(C=C1)OC2=C(C=C(C=C2)F)F)C3=CN(C(=O)C4=C3C=CN4)C, reference compound] | 11
16,1 ± 0,61 RUs | 2.24 | Positive | 211 | CCCc1c(C(=O)N(C)C2CN(C(=O)c3cc(C)n[nH]3)C2)[nH]c(C)c1C(C)=O [Compound 96, CCCC1=C(NC(C)=C1C(=O)C)C(=O)N(C)C2CN(C2)C(=O)C3=CC(C)=NN3] | 
